For series [1], the system named is D. immitis (Michigan strain). The series can be described thus: Efficacy of compounds in the D. immitis immunosuppressed rat model (third study, subcutaneous dosing). Type of series: in vivo.
The subject of series [2] is D. immitis (Michigan susceptible strain). The series can be described thus: Rat (SQ) heartworm model, compiled dose correlation data. Type of series: in vivo.
In series [3] the test system is D. immitis (UGA susceptible strain). The series can be described thus: Dog (oral) heartworm model, compiled dose correlation data. Type of series: in vivo.
Series [4] has as its system D. immitis ZoeMI-01 (ZM1) strain. The series can be described thus: Oral moxidectin in immunosuppressed rats infected with ZoeMI-01 strain. Type of series: in vivo, rat. To be noted: for Mean worm counts: geometric mean.
Series [5] has as its system D. immitis JYD-34 strain. The series can be described thus: Oral moxidectin in immunosuppressed rats infected with JYD-34 strain. Type of series: in vivo, rat. To be noted: for Mean worm counts: geometric mean.
The conditions of series [6]: rat, in vivo.
[7] abbreviates: rat, SC 0.001 mg/kg day 30 post-inoculation, necropsy day 112-114.
Setting [8] is: rat, SC 0.003 mg/kg day 30 post-inoculation, necropsy day 112-114.
Where [9] appears, read: SQ 1 μg/kg, dosed month 1 post-inoculation.
[10] abbreviates: oral 3 μg/kg day 28, necropsy day 120.
Where [11] appears, read: oral 3 μg/kg days 28, 56, 84, necropsy day 120.
The mark [12] stands for this setting: oral 12 μg/kg day 28, necropsy day 120.
Setting [13] is: oral 24 μg/kg day 28, necropsy day 120.
The mark [14] stands for this setting: n = 4, oral 3 μg/kg day 28, necropsy day 120.
The mark [15] stands for this setting: n = 4, oral 3 μg/kg days 28, 56, 84, necropsy day 120.
The mark [16] stands for this setting: n = 4, oral 24 μg/kg day 28, necropsy day 120.
The mark [17] stands for this setting: rat, SC 1.00 mg/kg day 30 post-inoculation, necropsy day 112-114.
[18] abbreviates: rat, SC 5.00 mg/kg day 30 post-inoculation, necropsy day 112-114.

Each structure is given as a SMILES string. Several values for one entry are separate records, joined by “and”; a condition that tells them apart may be missing. Identical values can stand only once.

With `CO/N=C1\C[C@]2(C[C@@H]3C[C@@H](C/C=C(\C)C[C@@H](C)/C=C/C=C4\CO[C@@H]5[C@H](O)C(C)=C[C@@H](C(=O)O3)[C@]45O)O2)O[C@H](/C(C)=C/C(C)C)[C@H]1C` [MOX, moxidectin], the “Mean worm count (range)” value in series [1] (arithmetic mean, rat, SC 0.001 mg/kg day 30 post-inoculation, necropsy day 112-114) is recorded as 0.67; in series [1] (arithmetic mean, rat, SC 0.003 mg/kg day 30 post-inoculation, necropsy day 112-114), 0. The compound further yielded an efficacy in series [1] (rat model, at their use-dose) of 100%. Also, the “# rats with infection (n = 6)” value came to 4 in series [1] (setting [7]) and 0 in series [1] (setting [8]). The “% Efficacy” value worked out at 91.7% in series [1] (setting [7]); 100% in series [1] (setting [8]); 92% in series [2] (setting [9]); 100% in series [2] (SQ 3 μg/kg, dosed month 1 post-inoculation); 100% in series [3] (oral 0.5 μg/kg, dosed month 2 post-inoculation); 100% in series [3] (oral 0.625 μg/kg, dosed month 2 post-inoculation). Also, the “% Efficacy” value in series [3] (oral 1.25 μg/kg, dosed months 1, 2 post-inoculation) was found to be 100%; in series [4] (setting [10]) it was 81%; in series [4] (setting [11]), 100%; in series [4] (setting [12]), 100%; in series [4] (setting [13]), 100%; in series [5] (setting [10]), 0%. The “% Efficacy” value is 38% in series [5] (setting [11]), 28% in series [5] (setting [12]) and 87% in series [5] (setting [13]). Further, the “# of Ag+” value in series [1] (rat, in vivo, sc, 0.001 mg/kg) amounted to 1; in series [1] (rat, in vivo, sc, 0.003 mg/kg), 0. Besides, the Mean worm counts in series [4] (setting [10]) was determined as 1.1; in series [4] (setting [11]), 0; in series [4] (setting [12]), 0; in series [4] (setting [13]), 0; in series [5] (setting [10]) it was 6.0; in series [5] (setting [11]), 2.4. Also, the Mean worm counts is given as 2.8 in series [5] (setting [12]) and 0.5 in series [5] (setting [13]). In addition, the “Number of rats infected” value in series [4] (setting [14]) is on record as 3; in series [4] (setting [15]), 0; in series [4] (n = 4, oral 12 μg/kg day 28, necropsy day 120) it was 0; in series [4] (setting [16]), 0; in series [5] (n = 4, one rat died pre-necropsy, oral 12 μg/kg day 28, necropsy day 120), “*3”; in series [5] (setting [14]) it was 4. The “Number of rats infected” value in series [5] (setting [15]) stood at 4; in series [5] (setting [16]), 1.

On to `CC(=O)OCC(=O)[C@@]1(O)CC[C@H]2[C@@H]3CCC4=CC(=O)CC[C@]4(C)[C@H]3[C@@H](O)C[C@@]21C` [hydrocortisone, hydrocortisone acetate], for which the mortality entry in series [6] is on record as “increased incidence of mortality”.

As to `CC(C)C[C@H]1C(=O)O[C@H](Cc2ccc(N3CCOCC3)cc2)C(=O)N(C)[C@@H](CC(C)C)C(=O)O[C@H](C)C(=O)N(C)[C@@H](CC(C)C)C(=O)O[C@H](Cc2ccc(N3CCOCC3)cc2)C(=O)N(C)[C@@H](CC(C)C)C(=O)O[C@H](C)C(=O)N1C` [EMO, emodepside], the “Mean worm count (range)” value in series [1] (arithmetic mean, rat, SC 1.00 mg/kg day 30 post-inoculation, necropsy day 112-114) is 1.8; in series [1] (arithmetic mean, rat, SC 5.00 mg/kg day 30 post-inoculation, necropsy day 112-114) it was 0. In addition, the prevention of heartworm in series [1] (rat model, dose not stated) stood at 100%. The “# rats with infection (n = 6)” value in series [1] (setting [17]) is listed as 3; in series [1] (setting [18]), 0. Besides, the “% Efficacy” value in series [1] (setting [17]) is 75.6%; in series [1] (setting [18]) it was 100%; in series [2] (setting [9]) it was 76%; in series [2] (SQ 5 μg/kg, dosed month 1 post-inoculation) it was 100%; in series [3] (oral 1 μg/kg, dosed month 1 post-inoculation) it was 58%; in series [3] (oral 3 μg/kg, dosed month 1 post-inoculation) it was 88%. The “% Efficacy” value in series [3] (oral 5 μg/kg, dosed month 1 post-inoculation) is listed as 97%; in series [3] (oral 10 μg/kg, dosed month 1 post-inoculation), 97%. For the same compound, the “# of Ag+” value in series [1] (rat, in vivo, sc, 1 mg/kg) was 1; in series [1] (rat, in vivo, sc, 5 mg/kg) it was 1.

The compound `CC[C@H](C)[C@H]1O[C@]2(CC[C@@H]1C)C[C@@H]1C[C@@H](C/C=C(\C)[C@@H](O[C@H]3C[C@H](OC)[C@@H](O[C@H]4C[C@H](OC)[C@@H](O)[C@H](C)O4)[C@H](C)O3)[C@@H](C)/C=C/C=C3\CO[C@@H]4[C@H](O)C(C)=C[C@@H](C(=O)O1)[C@]34O)O2` [IVM, ivermectin] gave an efficacy in series [1] (rat, in vivo) of 96.5%. In series [1] (rat, in vivo, sc, 0.001 mg/kg), the “# of Ag+” value is on record as 2, the “# rats with infection (n = 6)” value was found to be 5, the “% Efficacy” value was determined as 89.3% and the “Mean worm count (range)” value came out at 0.8. Besides, in series [1] (rat, in vivo, sc, 0.003 mg/kg), the “# of Ag+” value amounted to 2, the “# rats with infection (n = 6)” value is recorded as 1, the “% Efficacy” value was determined as 96.5% and the “Mean worm count (range)” value is 0.3. The “% Efficacy” value in series [2] (in vivo) is 89% and 97-100% and 100%. Besides, the “% Efficacy” value in series [3] (in vivo, po) is 53% and 83-97% and 98% and 100% and 64%.

For the origin of these results see patent publication US20250000069A1, “ANTHELMINTIC LABORATORY ANIMAL MODEL FOR HEARTWORM” (priority 2019, published 2025).
